The values below come from patent publication US6603023B2 (priority 1996, dated 2003).

As a reminder, the IC50 is the concentration at which inhibition is half-maximal.

Series [1] relates to CCRF-CEM/VM1. As to the kind of experiment: cells. It counts as cell-based, human. Particulars: for IC50: read-out: IC50. How it is done: (§1) The drug-resistant cell lines were continuously cultured in the presence of the selecting agent, AD, DX, VBL or VM to maintain the drug resistant phenotypes. […] All cells were cultured in RPMI 1640-10% FBS at 37° C. 5% CO2 (see below).
(§2) The cells were cultured at an initial density of 5×10^4 cells/mL. They were maintained in a 5% CO2-humidified atmosphere at 37° C. in RPMI-1640 medium (GIBCO-BRL, Gaithersburg, Md.) containing penicillin (100 U/mL), streptomycin ([…]) (GIBCO-BRL) and 10% heat inactivate fetal bovine serum. Culture for cell suspension (such as for CCRF-CEM, P388 and sublines), were performed by the XTT-microculture tetrazonium method (Scudiero, D. A. et al., Cancer Res. 1988, 48, 4827-4833) in duplicate in 96-well microtiter plates.
(§3) 2′,3′-Bis(methoxy-4-nitro-5-sufophenyl)-5-[(phenylamino)carbonyl]2H-tetrazolium hyudroxide (XTT) was prepared at 1 mg/mL in prewarmed (37° C.) medium without serum. Phenazine methosulfate (PMS) and fresh XTT were mixed together to obtain 0.025 mM PMS-XTT solution (25 μL of the stock 5 mM PMS was added per 5 mL of 1 mg/mL XTT). Following a 72 h incubation, 50 μL of the assay aliquots were added to each well of the cell culture. After incubation at 37° C. for 4 h, absorbance at 450 nm and 630 nm was measured with a microplate reader (EL340, Bio-Tek Instruments, Inc., Winooski, Vt.).

Series [2] has as its system CCRF-CEM/VBL100. As to the kind of experiment: cells. In kind it is cell-based, human. Particulars: for IC50: read-out: IC50. How it is done:
as §1, §2, §3

Series [3] concerns CCRF-CEM human T-cell acute lymphoblastic leukemia cell line. As to the kind of experiment: XTT cytotoxicity (cell growth inhibition), CCRF-CEM. As to conditions: for times less active than corresponding epothilone A counterpart (cytotoxicity): see Table 1. As for the experimental part:
The DC-3F hamster lung fibroblast cell line and its actinomycin D-selected sublines (DC-3F/ADII and DC-3F/ADX) were obtained from the Memorial Sloan-Kettering Cancer Center (MSKCC).
as §1, §2, §3
Background: Formazan colour is commonly taken as a measure of viable cells.

Series [4] relates to human mammary carcinoma MX-1 xenograft. As to conditions: MX-1; i.p.; comparison with Camptothecin, VBL, EpoB (order wraps over rows r7-r8). How it is done: (§4) DMSO was used as a vehicle for epothilones. Each mouse received ≦40 μL DMSO in all experiments.
(§5) Athymic nude mice (nu/nu) were used for MX-1 and MCF-7/Adr human mammary carcinoma xenografts. Mice were obtained from Taconic Laboratory Animals and Service (Germantown, N.Y.: outbred, Swiss background).

The test system of series [5] is MDR human mammary adenocarcinoma MCF-7/Adr xenograft. Description: in vivo. How it is done: as §4, §5
[6] abbreviates: camptothecin 3 mg/kg i.p. Q2Dx5 from day 8, day 11.
Setting [7] is: camptothecin 3 mg/kg i.p. Q2Dx5 from day 8, day 13.
[8] abbreviates: camptothecin 3 mg/kg i.p. Q2Dx5 from day 8, day 15.
Setting [9] is: camptothecin 3 mg/kg i.p. Q2Dx5 from day 8, day 17.
Setting [10] is: high doses: Taxol 12, Adriamycin 3, Camptothecin 3.0 mg/kg i.p. day 8,10,12,14,16.

Read-outs that look alike come from different tables or passages of the source. Marks after values point to notes of the source that are not given here.

In the case of `CC(=Cc1csc(C)n1)C(O)CC=CCCCC(C)C(O)C(C)C(=O)C(C)(C)C(O)CC(=O)O` (stereo not drawn) [#12], the IC50 was more than 5 µM in series [1] (Table 6, single determinations); more than 5 µM in series [2] (Table 6, single determinations); more than 5 µM in series [2] (Table 7, CEM/VBL); 0.794 µM in series [3] (Table 6, single determinations); 0.794 µM in series [3] (Table 7, CEM).
Regarding `C=CC[C@H](OC(=O)C[C@H](O)C(C)(C)C(=O)[C@H](C)[C@@H](O)[C@@H](C)CCCC(=C)C)/C(C)=C/c1csc(C)n1` [#13], the 50% inhibitory concentration (IC50) in series [1] (Table 6, single determinations) turned out to be 14.5 µM; in series [2] (Table 6, single determinations) it was 5.63 µM; in series [2] (Table 7, CEM/VBL) it was 5.63 µM; in series [3] (Table 6, single determinations), 11.5 µM; in series [3] (Table 7, CEM), 11.5 µM.
Consider `C/C(=C\c1csc(C)n1)[C@@H]1C/C=C\CCCC[C@H](O)[C@@H](C)C(=O)C(C)(C)[C@@H](O)CC(=O)O1` [#14, Desmethyldesoxyepothilone A], for which the IC50 in series [1] (Table 1, XTT) stood at 6.29 µM; in series [1] (Table 6, single determinations) it was 6.29 µM; in series [2] (Table 1, XTT), 5.75 µM; in series [2] (Table 6, single determinations), 5.75 µM; in series [2] (Table 7, CEM/VBL), 5.75 µM; in series [3] (Table 1, XTT), 5 µM. The IC50 came out at 5.42 µM in series [3] (Table 6, single determinations) and 5.42 µM in series [3] (Table 7, CEM). In series [3], the “times less active than corresponding epothilone A counterpart (cytotoxicity)” value was “approximately 200 times”.
Consider `C/C(=C\c1csc(C)n1)C1CC2OC2CCCCC(O)C(C)C(=O)C(C)(C)C(O)CC(=O)O1` (stereo not drawn) [#15, 8-Desmethylepothilone A], for which the IC50 in series [1] (Table 1, XTT) was 0.764 µM; in series [1] (Table 6, single determinations), 0.764 µM; in series [2] (Table 1, XTT) it was 2.47 µM; in series [2] (Table 6, single determinations), 2.47 µM; in series [2] (Table 7, CEM/VBL) it was 2.47 µM; in series [3], 0.44 µM. Further, the IC50 in series [3] (Table 1, XTT) is 0.439 µM; in series [3] (Table 6, single determinations), 0.439 µM; in series [3] (Table 7, CEM), 0.439 µM. For the same compound, in series [3] (CCRF-CEM leukemic cells), the “Rel. Value (potency relative to Epo B)” value was 1/1257. In addition, in series [3], the “times less active than corresponding epothilone A counterpart (cytotoxicity)” value is “approximately 200 times”.
`C/C(=C\c1csc(C)n1)[C@@H]1C[C@H]2O[C@H]2CCCC[C@H](O)[C@@H](C)C(=O)C(C)(C)[C@@H](O)CC(=O)O1` [#16]: the IC50 in series [1] (Table 6, single determinations) stood at 0.976 µM; in series [2] (Table 6, single determinations), 16.5 µM; in series [2] (Table 7, CEM/VBL), 16.5 µM; in series [3] (Table 6, single determinations) it was 7.47 µM; in series [3] (Table 7, CEM), 7.47 µM.
On to `CC[C@@]1(O)C(=O)OCc2c1cc1n(c2=O)Cc2cc3ccccc3nc2-1` [Campothecin, camptothecin], for which the “Therapeutic effect Rank Order” value in series [4] is given as “dEpoB > Camptothecin >”. For the same compound, the toxicity entry in series [5] (CPT 3 mg/kg Q2Dx5 i.p.) was “moderate toxicity without lethality”. The “Therapeutic effect Rank Order” value in series [5] (MCF-7/Adr, i.p. (order wraps over rows r13-r14)) is “dEpoB >> Camptothecin >”. For the same compound, the “Toxicity Death” value in series [5] (camptothecin 3 mg/kg i.p. Q2Dx5 from day 8) is 0/6. For the same compound, in series [5] (setting [6]), the “Average Body Weight Change” value was -0.6 g and the “Average Tumor Size (T/C)” value was 0.95. In series [5] (setting [7]), the “Average Body Weight Change” value is -0.4 g and the “Average Tumor Size (T/C)” value was 0.76. In series [5] (setting [8]), the “Average Body Weight Change” value was -0.8 g and the “Average Tumor Size (T/C)” value is reported as 0.61. Also, in series [5] (setting [9]), the “Average Body Weight Change” value was -0.9 g and the “Average Tumor Size (T/C)” value is listed as 0.43*. In addition, in series [5] (camptothecin 3 mg/kg, day 17), the tumor size reduction was 57%. Moreover, in series [5] (setting [10]), the “Average Body Weight (change), Day 11” value is -0.6 g; the “Average Body Weight (change), Day 13” value was -0.4 g; the “Average Body Weight (change), Day 15” value is -0.8 g; the “Average Body Weight Change, Day 17” value was -0.9 g. In series [5] (setting [10]), the “Average Tumor Volume (T/C), Day 11” value came to 0.95 T/C; the “Average Tumor Volume (T/C), Day 13” value turned out to be 0.76 T/C; the “Average Tumor Volume (T/C), Day 15” value was 0.61 T/C; the “Average Tumor Volume (T/C), Day 17” value turned out to be 0.43 T/C. The Died in series [5] (setting [10]) is recorded as 0/6. For the same compound, in series [5] (initial weight, first treatment day, high doses: Taxol 12, Adriamycin 3, Camptothecin 3.0 mg/kg i.p. day 8,10,12,14,16), the “Average Body Weight, Day 8” value worked out at 24.5 g.
epothilone B: the results for the “relative resistance (fold) vs parent cell line” value in series [1] (Table 6) and in series [2] (Table 6) were “(3.6X)” and “(6.1X)”, respectively. Further, the IC50 stood at 0.0012 µM in series [1] (Table 6, single determinations); 0.0021 µM in series [2] (Table 6, single determinations); 0.00033 µM in series [3] (Table 6, single determinations).
